Experiment: Chemical stability on storage: concentration / degradation of compound of Formula I in the composition
Format: physicochemical
Settings: after 8 weeks of storage at 40° C.
From the text: As used herein, the term “stable” when used in connection with chemical stability, e.g, chemically stable, means that the composition meets the chemical stability standards set forth by the Food and Agriculture Organization of the United Nations (FAO) in the Manual on Development and Use of FAO and WHO Specification for Pesticides (First Edition—Third Revision) (the “FAO/WHO Manual”) (available at http://www.fao.gov/agriculture/crops/thematic-sitemap/theme/pests/jmps/manual/en/), the entire content of which is hereby incorporate by reference into the subject application. […] The amount of degradation permitted before the degradation is considered to be significant depends on the concentration of the active ingredients in the composition.
The physical and chemical stability of composition of Example were tested under various conditions including CIPAC conditions.

With `Cc1ccc(S(=O)(=O)n2cc(F)c(=N)n(C)c2=O)cc1` [compound of Formula I, 5-fluoro-4-imino-3-methyl-1-tosyl-3,4-dihydropyrimidin-2(1H)-one] the “degradation of the compound of Formula I” value (with Attagel 50 (0.5% by weight) and Bentone SD-1 (0.5% by weight)) was 4% and the “degradation of the compound of Formula I” value (without Attagel 50 and Bentone SD-1) was 7-8%.

— patent publication US12414559B2, “Mixtures and compositions comprising 5-fluoro-4-imino-3-methyl-1-tosyl-3,4-dihydropyrimidin-2-one, and methods of use thereof” (Adama Makhteshim Ltd., priority 2018, dated 2025)
